Test results published in the OPERA property sets (Mansouri et al. 2018).
Where a SMILES comes first, the peptide text is derived from it. [ ]: non-standard residue; d: D form. The star is where a group is joined. Orn = NCCC[CH](N)C(=O)O; NHtBu = CC(C)(C)N*

SMILES | logP
Cn1c([N+](=O)[O-])cnc1-c1ccc(N)cc1 | 1.06
CC(C)CN1C(=O)C(=O)c2ccccc2C1=O | 2.08
C[C@H](O)C(=O)Nc1c(I)c(C(=O)NC(CO)CO)c(I)c(C(=O)NC(CO)CO)c1I | -2.42
O=C(O)CCCCC(S)CCS (centres undefined) | 2.41
CCC(=O)c1ccc2c(c1)N(CC(C)N(C)C)c1ccccc1S2 (centres undefined) | 4.79
Cc1ccc(CN2CCNC2=C[N+](=O)[O-])cn1 | -0.59
CC1CSC2C(NC(=O)C(O)c3ccccc3)C(=O)N2C1C(=O)O (centres undefined) | 0.47
O=C(NCCCO)C(F)(F)Cn1cnc([N+](=O)[O-])n1 | -0.63
CCCC(CCC)(NC(C)=O)C(N)=O | 0.75
N#CC(C#N)=NNc1ccccc1Cl | 3.12
CCC(C)C(NC(=O)C(CC(C)C)NC(C)=O)C(=O)NC(CCC(=O)O)C(N)=O (stereo not drawn) (Ac-Leu-Ile-Glu-NH2; configuration not given here) | 0.07
O=c1[nH]c(Nc2ccccc2)nc2c1ncn2CC(O)CSCCO (centres undefined) | 0.83
Fc1ccc(SCc2ccccc2CCCN2CCOCC2)cc1 | 3.69
C#CCC(O)(c1cccnc1)c1ccc(Cl)c(Cl)c1 (centres undefined) | 2.42
CCCn1c(=O)c2[nH]c(-c3ccc(S(=O)(=O)NCCN(C)C)cc3)nc2n(CCC)c1=O | 3.32
Nc1nc(N)nc(C(Cl)(Cl)Cl)n1 | 1.24
NC(=O)C(=Cc1ccc([N+](=O)[O-])o1)c1ccco1 | 0.15
Oc1ccc(O)c2ncccc12 | 1.42
CC(=O)OC(C(=O)NC1C(=O)N2C(C(=O)O)=C(C)CSC12)c1ccccc1 (centres undefined) | 1.02
CCc1cccc(NC(=O)Cc2ccccc2)c1 | 3.47
O=C(O)CCC(S)CCS (centres undefined) | 1.4
O=c1nc(N=CN2CCOCC2)ccn1C1OC(CO)C(O)C1O (centres undefined) | -1.66
CC1NC(=O)C(CC(=O)NC(Cc2cn(C(=O)OCc3ccccc3)c3ccccc23)C(=O)NC(Cc2ccccc2)C(=O)N(C)Cc2ccccc2)NC1=O (centres undefined) | 5.66
CCC1CC2C3CCC4=CC(=O)CCC4C3CCC2(C)C1C(=O)CF (centres undefined) | 4.66

SMILES | logP
COC(=O)n1cc(F)c(=O)[nH]c1=O | -0.68
O=[N+]([O-])c1nc(Br)[nH]c1Br | 2.82
CC(C1CC1)C(O)(Cn1cncn1)c1ccc(Cl)cc1 (centres undefined) | 2.9
CCc1ncc([N+](=O)[O-])n1C | 0.68
OCC1CC(F)C(n2cnc3c(F)ncnc32)O1 (centres undefined) | 0.06
CCN(CC)C(=O)c1cccc2c1C(=O)C(=O)N(CC)C2=O | 0.78
CCOC(=S)NCCn1c([N+](=O)[O-])cnc1C | 1.5
CC(=O)N(CC(O)CO)c1c(I)c(C(=O)NCCO)c(I)c(C(=O)NCCO)c1I (centres undefined) | -1.86
CNC(=O)C(Cc1ccc(O)cc1)NC(C)=O (centres undefined) | -0.32
CC(=O)OC1CC2(O)C3CCC4CC(OC5CC(O)C(OC6CC(O)C(OC7CC(O)C(O)C(C)O7)C(C)O6)C(C)O5)CCC4(C)C3CCC2(C)C1C1=CC(=O)OC1 (centres undefined) | 2.16
O=S(=O)(NCc1ccccc1)C(F)(F)F | 2.91
Nc1ccccc1S(N)(=O)=O | 0.22
CCCCNC(=O)C1(O)C(C)CC2C3CCC4=CC(=O)C=CC4(C)C3(F)C(O)CC21C (centres undefined) | 3.1
O=c1cc[nH]cc1 | -1.3
c1ccc2c(c1)Cc1ccccc1S2 | 3.86
CCCc1ccc(OCC(C)O)c2c(=O)cc(C(=O)O)oc12 (centres undefined) | 3
Cc1nc([N+](=O)[O-])c(C)[nH]1 | 0.43
Cc1ccc(Cl)c(OCC(O)CNC(C)(C)C)c1 (centres undefined) | 2.97
CCCCCCC(=O)N1CCCC1=O | 3.04
O=c1nc(N=CN2CCOCC2)ccn1C1CC(O)C(CO)O1 (centres undefined) | -1.54
Cc1cc(Cl)cc(Cl)c1 | 3.99
COC1=CC2CCC(NC(C)=O)c3cc(=O)c(OC)ccc3C2C(OC)=C1O (centres undefined) | 0.47
Clc1cc(Cl)c2oc3c(Cl)cc(Cl)c(Cl)c3c2c1 | 6.34
Clc1ccc(Cl)c(-c2cc(Cl)c(Cl)c(Cl)c2Cl)c1 | 7.19

SMILES | logP
O=c1[nH]c(Nc2ccccc2)nc2c1ncn2C1CC(O)C(CO)O1 (centres undefined) | 0.4
CC(C)CN1C(=O)NC(=O)C(=O)C1=O | 0.76
CCN1C(=O)C(=O)c2c(OC)cc(OC)cc2C1=O | 1.23
OCC1COC(Cn2cncn2)(c2ccc(Cl)cc2Cl)O1 (centres undefined) | 1.76
FC(F)(F)C1(F)C(F)(F)C(F)(F)C(F)(N2C(F)(F)C(F)(F)C(F)(F)C(F)(F)C2(F)F)C(F)(F)C1(F)F (centres undefined) | 7.1
Cc1n[nH]c(C(=O)N2CCCC2)c1[N+](=O)[O-] | 0.25
CCc1ccc(OCc2ccccc2CCCN2CCC(O)CC2)cc1 | 3.75
CC(=O)NC(CCC(=O)O)C(N)=O (centres undefined) | -2.47
N#CC(C#N)=NNc1ccccc1C(F)(F)F | 4.2
O=c1nc(N=CN2CCCC2)ccn1C1CC(O)C(CO)O1 (centres undefined) | -1.02
CCC1COC(Cn2cncn2)(c2ccc([N+](=O)[O-])cc2)O1 (centres undefined) | 1.52
Cn1c([N+](=O)[O-])cnc1Cc1ccc(C(N)=O)cc1 | 0.55
COC(=O)CNC(=O)C1(O)C(C)CC2C3CCC4=CC(=O)C=CC4(C)C3(F)C(O)CC21C (centres undefined) | 1.69
CCOC(=O)c1ccc(OCC(OC(=S)n2ccnc2)C(C)(C)C)cc1 (centres undefined) | 4.77
CN(C)CCn1nnnc1SCC1=C(C(=O)OCOC(=O)C(C)(C)C)N2C(=O)C(NC(=O)Cc3csc(N)n3)C2SC1 (centres undefined) | 1.57
CN(C)N=Nc1ccc(S(=O)(=O)CCO)cc1 | 1.15
CCC(=O)C1(c2cccc(OC(=O)OC(C)C)c2)CCN(C)CC1 | 1.72
Cc1ccc2c(=O)[nH]c(=O)[nH]c2c1 | 0.55
O=C(NC(CO)C(O)c1ccc(-c2ccccn2)cc1)C(F)(F)F (centres undefined) | 1.31
CC1CC2C3CCC4=CC(=O)C=CC4(C)C3(F)C(O)CC2(C)C1(O)C(=O)NCCCl (centres undefined) | 2.73
O=[N+]([O-])N=C1NCCN1Cc1cccnc1 | -0.19
CCOC(=O)Cc1ccc(O)c2ncccc12 | 2.26
NC(CCc1ccccc1)C(=O)O (centres undefined) | -1.2
CC(C)N(C=Nc1ccn(C2CC(O)C(CO)O2)c(=O)n1)C(C)C (centres undefined) | 0.17

SMILES | logP
COc1cccc(OC)c1-c1nc2ccncc2[nH]1 | 1.66
CCNc1nc(SC)nc(C(Cl)(Cl)Cl)n1 | 3.87
N#CC(C#N)=NNc1ccc(/N=N/c2ccccc2)cc1 | 4.25
CC1CC2C3CCC4=CC(=O)C=CC4(C)C3(F)C(O)CC2(C)C1(O)C(N)=O (centres undefined) | 1.41
CN(CO)c1nc(N(C)CO)nc(N(C)CO)n1 | 0.4
CCCCNC(=O)c1n[nH]c(C)c1[N+](=O)[O-] | 1.27
CN1C(=O)C(=O)C(=O)N(C)C1=O | -0.6
CC(C)CCCNC(=O)C1(O)C(C)CC2C3CCC4=CC(=O)C=CC4(C)C3(F)C(O)CC21C (centres undefined) | 3.93
O=C(O)CCCCCNCCc1ccccc1 | -1.3
CSCCC(NC(C)=O)C(=O)NC(C(N)=O)C(C)C (centres undefined) | -0.28
COC(=O)NCCn1c([N+](=O)[O-])cnc1C | 0.02
CCN(CC)CCSC(=NO)c1nc(C)no1 | 0.71
CC(C)(C)C(=O)CC(C(O)C(C)(C)C)n1cncn1 (centres undefined) | 1.95
CC(C)NCC(O)COCCCc1ccccc1 (centres undefined) | 1.94
C#CCOc1c(Cl)cc(NC=NOCC)cc1Cl | 3.6
NC1C2CCC1c1ccccc1C2 (centres undefined) | 1.63
COc1ccccc1NC(=O)OCCN1CCOCC1 | 1.73
CCCCOC(=O)NCCn1c([N+](=O)[O-])cnc1C | 1.22
CC(=O)NC(C)C(=O)N1CCCC1C(=O)NC(C)C(=O)NC(C)(C)C (stereo not drawn) (Ac-Ala-Pro-Ala-NHtBu; configuration not given here) | -0.39
O=c1nc(N=CN2CCCCC2)ccn1C1OC(CO)C(O)C1O (centres undefined) | -0.66
Cc1cccc(C)c1NC(=O)c1ccc(CN2CCCC2)cc1 | 3.14
CN(C)CCC[N+]1([O-])c2ccccc2Sc2ccccc21 | 1.9
COC1(NC(=O)CSC(F)F)C(=O)N2C(C(=O)OCOC(=O)C(C)(C)C)=C(CSc3nnnn3C)CSC21 (centres undefined) | 2.31
CC(=O)NC(CC(C)C)C(=O)NC(CCC(=O)O)C(=O)NC(Cc1ccccc1)C(N)=O (stereo not drawn) (Ac-Leu-Glu-Phe-NH2; configuration not given here) | 0.47

SMILES | logP
CCCCC(=O)OC(C(=O)NC1C(=O)N2C(C(=O)O)=C(C)CSC12)c1ccccc1 (centres undefined) | 2.23
CC(C)(C)n1ccnc1C=NO | 0.85
CN(C)N=Nc1ccc([N+](=O)[O-])cc1 | 3.25
CCOC(=O)Cn1ccnc1[N+](=O)[O-] | 0.33
CN1C(=O)CN=C(c2ccccc2Cl)c2cc([N+](=O)[O-])ccc21 | 2.56
CC(C)CNC(=O)C1(O)C(C)CC2C3CCC4=CC(=O)C=CC4(C)C3(F)C(O)CC21C (centres undefined) | 3.01
O=C1C(=O)N(c2ccccc2)C(=O)c2ccccc21 | 1.14
CC(=O)NC(CCCCN)C(=O)NC(Cc1ccccc1)C(=O)NC(CC(C)C)C(N)=O (stereo not drawn) (Ac-Lys-Phe-Leu-NH2; configuration not given here) | 0.98
CCOc1ccc(NC(=O)OCCN2CCOCC2)cc1 | 2.18
O=C(NCCCOc1cccc(CN2CCCCC2)c1)c1ccccc1 | 3.97
O=[N+]([O-])C=C1NCCN1CCc1ccc(Cl)nc1 | -0.23
CCC(C)C(NC(=O)C(CCCN)NC(C)=O)C(=O)NC(C(N)=O)C(C)C (stereo not drawn) (Ac-[Orn]-Ile-Val-NH2; configuration not given here) | -0.43
CC(=O)NC(CC(C)C)C(=O)NC(CC(=O)O)C(=O)NC(CC(C)C)C(N)=O (stereo not drawn) (Ac-Leu-Asp-Leu-NH2; configuration not given here) | 0.16
CCC(=O)OC(C(=O)NC1C(=O)N2C(C(=O)O)=C(C)CSC12)c1ccccc1 (centres undefined) | 1.47
CCCCN1C(=O)NC(=O)C(=O)C1=O | 0.81
COCC(O)Cn1cc([N+](=O)[O-])nn1 (centres undefined) | -0.36
Cc1n[nH]c(C(=O)NC2CCCC2)c1[N+](=O)[O-] | 1.24
CC(=O)NC(CCCCN)C(=O)NC(CC(C)C)C(N)=O (stereo not drawn) (Ac-Lys-Leu-NH2; configuration not given here) | -0.26
CC1OC(OC2C(C)OC(OC3C(C)OC(OC4CCC5(C)C(CCC6C5CCC5(C)C(C7=CC(=O)OC7)C(OC=O)CC65OC=O)C4)CC3OC=O)CC2OC=O)CC(O)C1OC=O (centres undefined) | 3.16
Fc1ccc(C(c2ccc(F)cc2)N2CCN(C/C=C/c3ccccc3)CC2)cc1 | 5.78
COc1ccc(-n2ccc(=O)c(O)c2C)cc1 | 1.27
NS(=O)(=O)c1cc(S(=O)(=O)c2ccc(CN3CCOCC3)cc2)cs1 | 0.98
O=C1CN=C(c2ccccc2)c2cc(C(F)(F)F)ccc2N1 | 3.1
